From patent US7498460B2, “Isophthalic acid derivatives” (Bayer Healthcare AG, priority 2002, dated 2009)

How the values were obtained:
human CysLT2 receptor = target: T1, human CysLT2 receptor (Homo sapiens, UniProt Q9NS75); experiment: Cellular in vitro test to determine the CysLT2 activity (aequorin luminescence, LTD4 stimulation); type: cell-based; details: CHO K1 cells with aequorin and human CysLT2 receptor; agonist LTD4 3×10^−8 M
T1 construct: expressed in transfected cells; host or cells: CHO K1 (ATCC) constitutively expressing aequorin
T1 sequence (Q9NS75 1-346): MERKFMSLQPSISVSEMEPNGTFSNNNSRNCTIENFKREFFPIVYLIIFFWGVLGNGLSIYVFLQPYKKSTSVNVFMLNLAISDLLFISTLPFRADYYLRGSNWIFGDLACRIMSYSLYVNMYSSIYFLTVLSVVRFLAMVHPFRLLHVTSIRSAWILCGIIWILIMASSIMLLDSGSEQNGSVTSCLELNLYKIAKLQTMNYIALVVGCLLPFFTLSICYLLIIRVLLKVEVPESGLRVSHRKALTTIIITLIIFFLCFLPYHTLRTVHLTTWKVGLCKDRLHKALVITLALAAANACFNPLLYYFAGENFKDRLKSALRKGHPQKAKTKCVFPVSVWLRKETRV
From the text: B. Assessment of the Physiological Activity Abbreviations: DMEM Dulbecco's modified Eagle medium FCS Fetal calf serum HEPES 4-(2-hydroxyethyl)-1-piperazineethanesulphonic acid 1. Cellular In Vitro Test to Determine the CysLT2 Activity
A recombinant cell line is used to identify antagonists of the human cysteinyl-leukotriene 2 receptor (CysLT2R) and to quantify the activity of the substances described herein. The cell is originally derived from a hamster ovary epithelial cell (Chinese Hamster Ovary, CHO K1, ATCC: American Type Culture Collection, Manassas, Va. 20108, USA). The test cell line constitutively expresses the calcium-sensitive photoprotein aequorin which, after reconstitution with the cofactor coelenterazine, emits light when the cytoplasmic calcium concentration is increased (Rizzuto R, Simpson A W, Brini M, Pozzan T.; Nature 358 (1992) 325-327). The cell is additionally stably transfected with the human CysLT2 receptor (Heise et.al., JBC 275 (2000) 30531-30536). The resulting CysLT2R test cell responds to stimulation of the recombinant CysLT2 receptor (agonists: leukotriene D4 (LTD4) and leukotriene C4 (LTC4)) with an intracellular release of calcium ions, which can be quantified through the resulting aequorin luminescence with a suitable luminometer (Milligan G, Marshall F, Rees S, Trends in Pharmacological Sciences 17 (1996) 235-237). Preincubation with antagonists of the CysLT2 receptor reduces the calcium release induced by the agonists LTD4 and LTC4 and thus the measured amount of light.
(§1) Test procedure: The cells are plated out two days before the test in culture medium (DMEM/F12 with Glutamax, Gibco Cat.# 61965-026; 10% FCS, Gibco Cat.# 10270-106; 1.4 mM sodium pyruvate, Gibco Cat.# 11360-039; 1.8 mM sodium bicarbonate, Gibco Cat.# 25080-060; 10 mM HEPES, Gibco Cat.# 15290-026; now belongs to Invitrogen GmbH, 76131 Karlsruhe) in 384- (or 1536-)well microtitre plates and kept in a cell incubator (96% humidity, 5% V/V CO2, 37° C.). On the day of the test, the culture medium is replaced by Tyrode solution (in mM: 140 NaCl, 5 KCl, 1 MgCl2, 2 CaCl2; 20 glucose, 20 HEPES) which additionally contains the cofactor coelenterazine (50 μM), and the microtitre plate is then incubated for a further 3-4 hours. 15 minutes after the test substances have been transferred into the wells of the microtitre plate, the resulting light signal is measured after addition of the LTD4 (3×10^−8 M) in the luminometer.

human CysLT1 receptor = target: T2, human CysLT1 receptor (Homo sapiens, UniProt Q9Y271); experiment: Cellular in vitro test to determine the CysLT1 activity (aequorin luminescence, LTD4 stimulation); type: cell-based; details: CHO K1 cells with aequorin and human CysLT1 receptor; agonist LTD4 3×10^−9 M
T2 construct: expressed in transfected cells; host or cells: CHO K1 (ATCC) constitutively expressing aequorin
T2 sequence (Q9Y271 1-337): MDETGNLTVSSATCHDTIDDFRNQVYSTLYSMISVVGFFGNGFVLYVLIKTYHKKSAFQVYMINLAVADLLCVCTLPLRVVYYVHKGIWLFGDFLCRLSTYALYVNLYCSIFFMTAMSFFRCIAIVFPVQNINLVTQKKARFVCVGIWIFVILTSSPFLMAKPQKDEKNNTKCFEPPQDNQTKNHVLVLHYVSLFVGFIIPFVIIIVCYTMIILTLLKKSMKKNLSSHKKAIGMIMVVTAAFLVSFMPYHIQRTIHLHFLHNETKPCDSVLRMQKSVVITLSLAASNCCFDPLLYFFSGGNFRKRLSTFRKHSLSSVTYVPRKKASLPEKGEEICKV
From the text: 2. Cellular In Vitro Test to Determine the CysLT1 Activity
A recombinant cell line is used to identify antagonists of the human cysteinyl-leukotriene 1 receptor (CysLT1R) and to quantify the activity of the substances described herein. The cell is originally derived from a hamster ovary epithelial cell (Chinese Hamster Ovary, CHO K1, ATCC: American Type Culture Collection, Manassas, Va. 20108, USA). The test cell line constitutively expresses the calcium-sensitive photoprotein aequorin which, after reconstitution with the cofactor coelenterazine, emits light when the cytoplasmic calcium concentration is increased (Rizzuto R, Simpson A W, Brini M, Pozzan T.; Nature 358 (1992) 325-327). The cell is additionally stably transfected with the human CysLT1 receptor (Lynch et al., Nature 399 (1999) 789-793). The resulting CysLT1R test cell responds to stimulation of the recombinant CysLT1 receptor (agonist: leukotriene D4 (LTD4)) with an intracellular release of calcium ions, which can be quantified through the resulting aequorin luminescence with a suitable luminometer (Milligan G, Marshall F, Rees S. Trends in Pharmacological Sciences 17 (1996) 235-237). Preincubation with antagonists of the CysLT1 receptor reduces the calcium release induced by the agonist LTD4 and thus the measured amount of light.
as §1, with “CaCl2,” for “CaCl2;”, “(3×10^−9M)” for “(3×10^−8 M)”

[1] = test system: isolated guinea pig hearts; experiment: Langendorff guinea pig heart: perfusion pressure and left ventricular pressure after LTC4
Procedure: 3. […] to Detect the Cardiovascular Effect: Langendorff Guinea Pig Heart
The heart is removed after opening the chest cavity of anaesthetized guinea pigs and is introduced into a conventional Langendorff apparatus. The coronary arteries are subjected to a constant volume (10 ml/min) perfusion, and the perfusion pressure arising thereby is recorded via an appropriate pressure transducer. A decrease in the perfusion pressure in this arrangement corresponds to a relaxation of the coronary arteries. At the same time, the pressure developed by the heart during each contraction (the left ventricular pressure) is measured by a balloon introduced into the left ventricle, and a further pressure transducer. The rate at which the isolated heart beats is found by calculation from the number of contractions per unit time.
To detect the effect of CysLT2 receptor antagonists, the perfusion with the agonist LTC4 (10^−8 M) is started 15 minutes before addition of increasing concentrations of the test substance (10^−8 to 10^−6 M).

[2] = LTC4 (10^−8M) + test sub. (10^−6M)
[3] = LTC4 (10^−8M) + test sub. (10^−7M)
[4] = LTC4 (10^−8M) + test sub. (10^−8M)

| Compound | IC50 (human CysLT2 receptor) | IC50 (human CysLT1 receptor) | Left ventricular pressure relative to control without LTC4 [1, 2] | Perfusion pressure relative to control without LTC4 [1, 2] | Left ventricular pressure relative to control without LTC4 [1, 3] | Perfusion pressure relative to control without LTC4 [1, 3] | Left ventricular pressure relative to control without LTC4 [1, 4] | Perfusion pressure relative to control without LTC4 [1, 4] | melting point |
| --- | --- | --- | --- | --- | --- | --- | --- | --- | --- |
| O=C(O)c1ccc(OCCCc2ccc(OCCCCOc3ccccc3)cc2)c(C(=O)NC2CCCC(C(=O)O)C2)c1 (racemic) [Example 11, 3-{[(3-Carboxycyclohexyl)amino]carbonyl}-4-{3-[4-(4-phenoxybutoxy)phenyl]-propoxy}benzoic acid (racemate B)] | 35 nM | > 10000 nM | 79% | 108% | 60% | 112% | 44% | 125% | 182 to 183 °C |
| O=C(O)c1ccc(OCCCc2ccc(OCCCCOc3ccccc3)cc2)c(C(=O)NC2CCCC(C(=O)O)C2)c1 (racemic) [Example 12, 3-{[(3-Carboxycyclohexyl)amino]carbonyl}-4-{3-[4-(4-phenoxybutoxy)phenyl]-propoxy}benzoic acid (racemate A)] |  |  |  |  |  |  |  |  | > 210 °C |
| O=C(O)c1ccc(OCCCc2ccc(OCc3ccc(-c4ccccc4)cc3)cc2)c(C(=O)N2CCC(C(=O)O)CC2)c1 [Example 13, 1-(2-{3-[4-(1,1′-Biphenyl-4-ylmethoxy)phenyl]propoxy}-5-carboxybenzoyl)-4-piperidinecarboxylic acid] |  |  |  |  |  |  |  |  | 193 to 194 °C |
| O=C(O)c1ccc(OCCCc2ccc(OCCCCOc3ccccc3)cc2)c(C(=O)N2CCC(C(=O)O)CC2)c1 [Example 15, 1-(5-Carboxy-2-{3-[4-(4-phenoxybutoxy)phenyl]propoxy}benzoyl)-4-piperidine-carboxylic acid] |  |  |  |  |  |  |  |  | 142 to 143 °C |
| O=C(O)c1ccc(OCCCc2ccc(OCCCCOc3ccccc3)cc2)c(C(=O)NC2CCC(C(=O)O)CC2)c1 (stereo not shown) [Example 16, 3-{[(4-Carboxycyclohexyl)amino]carbonyl}-4-{3-[4-(4-phenoxybutoxy)phenyl]-propoxy}benzoic acid] |  |  |  |  |  |  |  |  | 163 to 165 °C |
| O=C(O)CC1CCN(C(=O)c2cc(C(=O)O)ccc2OCCCc2ccc(OCCCCOc3ccccc3)cc2)CC1 [Example 18, 3-{[4-(Carboxymethyl)-1-piperidinyl]carbonyl}-4-{3-[4-(4-phenoxybutoxy)phenyl]-propoxy}benzoic acid] |  |  |  |  |  |  |  |  | 192 °C |
| O=C(O)c1ccc(OCCCc2ccc(OCCCC3CCCCC3)cc2)c(C(=O)NC2CCCC(C(=O)O)C2)c1 (stereo not shown) [Example 23, 3-{[(3-Carboxycyclohexyl)amino]carbonyl}-4-{3-[4-(3-cyclohexylpropoxy)phenyl]-propoxy}benzoic acid] | 5 nM | 2000 nM | 97% | 111% | 84% | 127% | 72% | 133% | 160 °C |
| O=C(O)c1ccc(OCCCc2ccc(OCCCC3CCCCC3)cc2)c(C(=O)N2CCC(C(=O)O)CC2)c1 [Example 31, 1-(5-Carboxy-2-{3-[4-(3-cyclohexylpropoxy)phenyl]propoxy}benzoyl)piperidine-4-carboxylic acid] | 14 nM | 2500 nM | 87% | 112% | 81% | 123% | 67% | 128% | 183.4 to 184.5 °C |
| CC(C)Oc1ccc(COc2ccc(CCCOc3ccc(C(=O)O)cc3C(=O)NC3CCCC(C(=O)O)C3)cc2)cc1 (stereo not shown) [Example 33, 3-{[(3-Carboxycyclohexyl)amino]carbonyl}-4-(3-{4-[(4-isopropoxybenzyl)oxy]-phenyl}propoxy)benzoic acid] | 15 nM | > 10000 nM | 84% | 108% | 57% | 121% | 44% | 122% |  |
